Assay results from BindingDB's records for doi:10.1016/S0960-894X(97)10016-6 (1997).

Molecular target: T1, Progesterone receptor (Oryctolagus cuniculus, UniProt P06186)
T1 sequence (P06186 whole entry): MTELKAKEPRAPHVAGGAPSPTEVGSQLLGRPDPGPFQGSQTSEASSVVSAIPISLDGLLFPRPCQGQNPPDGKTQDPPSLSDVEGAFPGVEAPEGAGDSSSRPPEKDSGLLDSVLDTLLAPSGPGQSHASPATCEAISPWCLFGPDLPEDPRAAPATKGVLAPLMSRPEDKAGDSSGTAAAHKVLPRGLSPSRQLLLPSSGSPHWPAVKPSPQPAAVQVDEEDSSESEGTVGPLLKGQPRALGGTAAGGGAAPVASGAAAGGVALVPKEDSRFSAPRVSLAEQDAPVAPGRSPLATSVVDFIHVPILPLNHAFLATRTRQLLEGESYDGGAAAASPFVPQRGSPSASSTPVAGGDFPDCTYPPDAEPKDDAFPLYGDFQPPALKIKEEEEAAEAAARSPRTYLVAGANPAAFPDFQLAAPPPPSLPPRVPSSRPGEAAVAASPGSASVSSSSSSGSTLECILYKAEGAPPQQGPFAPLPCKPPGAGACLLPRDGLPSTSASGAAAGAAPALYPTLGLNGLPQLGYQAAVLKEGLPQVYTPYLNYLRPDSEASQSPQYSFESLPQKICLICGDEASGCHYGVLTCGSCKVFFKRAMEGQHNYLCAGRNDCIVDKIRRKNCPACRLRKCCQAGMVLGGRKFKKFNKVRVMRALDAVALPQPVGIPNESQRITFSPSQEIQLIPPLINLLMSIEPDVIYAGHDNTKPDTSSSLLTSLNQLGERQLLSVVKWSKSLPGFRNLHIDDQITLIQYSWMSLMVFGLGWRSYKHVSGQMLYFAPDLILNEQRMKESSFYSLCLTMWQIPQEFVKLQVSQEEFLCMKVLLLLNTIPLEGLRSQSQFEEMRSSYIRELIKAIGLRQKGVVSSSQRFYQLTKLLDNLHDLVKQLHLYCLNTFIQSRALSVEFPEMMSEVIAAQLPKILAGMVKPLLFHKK
Experiment: ChEBML_159701
Text: Binding affinity determined by ability to displace [3H]R5020 radioligand using uterine progesterone receptor obtained from estrogen-primed rabbit

| IC50 [µM] | SMILES |
| --- | --- |
| > 10 | O=C(NNCC1=NN(c2ccc(F)cc2)C2C(Cc3cccc4ccccc34)CCCC12)c1ccccc1 (configuration not stated) |
| > 10 | O=S(=O)(NNCC1=NN(c2ccc(F)cc2)C2C(Cc3cccc4ccccc34)CCCC12)c1ccccc1 (configuration not stated) [1-(4-Fluoro-phenyl)-3-(N'-[(E)-methylene]benzenesulfonohydrazide)-7-naphthalen-1-ylmethyl-octahydro-indazole] |
